Some results are limits rather than exact numbers.

In general, IC50 refers to the concentration that inhibits the measured activity by half. Low readings indicate greater potency, high ones weaker potency. A word on the EC50: it is the midpoint of the concentration-response curve. A lower EC50 goes with greater potency.

One assay relates to Wnt activity (Sp5-Luc reporter, SW480 colon carcinoma cells). As to the kind of experiment: Sp5-Luc Wnt reporter gene screening assay in SW480 colon carcinoma cells. The note with it: Homo sapiens. In general terms: Reporter assays use an easily measured gene product as a stand-in for the process of interest.
Procedure: The screening assay for Wnt activity is described as follows.
SW480 colon carcinoma cells were transduced with a lentiviral vector expressing luciferase with a human Sp5 promoter consisting of a sequence of eight TCF/LEF binding sites. SW480 cells stably expressing the Sp5-Luc reporter gene and a hygromycin resistance gene were selected by treatment with 150 μg/ml of hygromycin for 7 days. These stably transduced SW480 cells were expanded in cell culture and used for all further screening activities. For Sp5-Luc reporter gene assays, the cells were plated at 10,000 cells/well in 96-well plates with growth medium containing 10% fetal calf serum and incubated overnight at 37° C. and 5% CO2. […] Compound transfer from serially diluted source plates to assay plates containing the cells was accomplished using a pintool (Multimek 96, Beckman equipped with V&P Scientific FP1S50H pins) based liquid handling protocol. This protocol used a slotted pin to transfer 50 nl of compound from a source plate well to an assay plate well containing 50 μl of cells in growth medium. […] Control wells received 50 nl of DMSO treatment for normalization and calculating IC50 values. The treated cells were incubated at 37° C. and 5% CO2 for an additional forty-two hours. Following incubation, the growth medium was removed and 50 μl of BrightGlo luminescence reagent (Promega) was added to each well of the 96-well assay plates. The plates were placed on an orbital shaker for 5 min and then luminescence was quantified on the Victor3 (Perkin Elmer) plate reader.
For the molecule `CN(C)c1cncc(-c2cc3c(-c4nc5c(-c6cccs6)cccc5[nH]4)n[nH]c3cn2)c1` [Compound 319, N,N-Dimethyl-5-(3-(4-(thiophen-2-yl)-1H-benzo[d]imidazol-2-yl)-1H-pyrazolo[3,4-c]pyridin-5-yl)pyridin-3-amine], half-maximal inhibition (IC50) required 0.0779 µM. Molecule `CN(C)CCNc1cc(F)cc(-c2cccc3[nH]c(-c4n[nH]c5cnc(-c6cncc(CNCC7CCCC7)c6)cc45)nc23)c1` [Compound 466, N^1-(3-(2-(5-(5-(((Cyclopentylmethyl)amino)methyl)pyridin-3-yl)-1H-pyrazolo[3,4-c]pyridin-3-yl)-1H-benzo[d]imidazol-4-yl)-5-fluorophenyl)-N^2,N^2-dimethylethane-1,2-diamine] had an IC50 of 0.466 µM. Molecule `O=C(CC1CCCCC1)Nc1cncc(-c2cc3c(-c4nc5c(-c6cccc(F)c6)cccc5[nH]4)n[nH]c3cn2)c1` [Compound 951, 2-Cyclohexyl-N-(5-(3-(4-(3-fluorophenyl)-1H-benzo[d]imidazol-2-yl)-1H-pyrazolo[3,4-c]pyridin-5-yl)pyridin-3-yl)acetamide] came in with an IC50 of 0.115 µM. Same read-out and setting: the same measure for `O=C(CC1CCNCC1)Nc1cncc(-c2cc3c(-c4nc5c(-c6cccc(F)c6)cccc5[nH]4)n[nH]c3cn2)c1` [Compound 945, N-(5-(3-(4-(3-Fluorophenyl)-1H-benzo[d]imidazol-2-yl)-1H-pyrazolo[3,4-c]pyridin-5-yl)pyridin-3-yl)-2-(piperidin-4-yl)acetamide]: over 10 µM; for `Fc1cccc(-c2cccc3[nH]c(-c4n[nH]c5cnc(-c6cncc(OC7CCNCC7)c6)cc45)nc23)c1` [Compound 944, 3-(4-(3-Fluorophenyl)-1H-benzo[d]imidazol-2-yl)-5-(5-(piperidin-4-yloxy)pyridin-3-yl)-1H-pyrazolo[3,4-c]pyridine]: 1.21 µM; for `Fc1cccc(-c2cccc3[nH]c(-c4n[nH]c5cnc(-c6cncc(OCc7ccccc7)c6)cc45)nc23)c1` [Compound 950, 5-(5-(Benzyloxy)pyridin-3-yl)-3-(4-(3-fluorophenyl)-1H-benzo[d]imidazol-2-yl)-1H-pyrazolo[3,4-c]pyridine]: 0.165 µM. On the same count and under the same terms, the same measure for `O=C(Nc1cncc(-c2cc3c(-c4nc5c(-c6ccsc6)cccc5[nH]4)n[nH]c3cn2)c1)C1CCC1` [Compound 280, N-(5-(3-(4-(Thiophen-3-yl)-1H-benzo[d]imidazol-2-yl)-1H-pyrazolo[3,4-c]pyridin-5-yl)pyridin-3-yl)cyclobutanecarboxamide]: 0.0062 µM; for `CCCC(=O)Nc1cncc(-c2cc3c(-c4nc5c(-c6ccncc6)cccc5[nH]4)n[nH]c3cn2)c1` [Compound 121, N-(5-(3-(4-(Pyridin-4-yl)-1H-benzo[d]imidazol-2-yl)-1H-pyrazolo[3,4-c]pyridin-5-yl)pyridin-3-yl)butyramide]: over 10 µM; for `O=C(Nc1cncc(-c2cc3c(-c4nc5c(-c6ccoc6)cccc5[nH]4)n[nH]c3cn2)c1)C1CCC1` [Compound 306, N-(5-(3-(4-(Furan-3-yl)-1H-benzo[d]imidazol-2-yl)-1H-pyrazolo[3,4-c]pyridin-5-yl)pyridin-3-yl)cyclobutanecarboxamide]: 0.0168 µM. In the case of `CC(=O)c1ccc(-c2cccc3[nH]c(-c4n[nH]c5cnc(-c6cncc(NC(=O)CC(C)(C)C)c6)cc45)nc23)s1` [Compound 406, N-(5-(3-(4-(5-Acetylthiophen-2-yl)-1H-benzo[d]imidazol-2-yl)-1H-pyrazolo[3,4-c]pyridin-5-yl)pyridin-3-yl)-3,3-dimethylbutanamide], the IC50 turned out to be 0.247 µM.

`Fc1cccc(-c2cccc3[nH]c(-c4n[nH]c5cnc(C6=CCNCC6)cc45)nc23)c1` [Compound 938, 3-(4-(3-Fluorophenyl)-1H-benzo[d]imidazol-2-yl)-5-(1,2,3,6-tetrahydropyridin-4-yl)-1H-pyrazolo[3,4-c]pyridine]: it took 0.145 µM to reach half-maximal inhibition (IC50).

`Fc1cccc(-c2cccc3[nH]c(-c4n[nH]c5cnc(-c6cncc(OCCN7CCCC7)c6)cc45)nc23)c1` [Compound 946, 3-(4-(3-Fluorophenyl)-1H-benzo[d]imidazol-2-yl)-5-(5-(2-(pyrrolidin-1-yl)ethoxy)pyridin-3-yl)-1H-pyrazolo[3,4-c]pyridine]: the IC50 came out at 0.58 µM. Same read-out and setting: for `Cc1ncc(-c2cc3c(-c4nc5c(-c6cccc(F)c6)cccc5[nH]4)n[nH]c3cn2)n1C` [Compound 941, 5-(1,2-Dimethyl-1H-imidazol-5-yl)-3-(4-(3-fluorophenyl)-1H-benzo[d]imidazol-2-yl)-1H-pyrazolo[3,4-c]pyridine] the value was 0.334 µM.

`NC1CN(c2cncc(-c3cc4c(-c5nc6c(-c7cccc(F)c7)cccc6[nH]5)n[nH]c4cn3)n2)C1` [Compound 942, 1-(6-(3-(4-(3-Fluorophenyl)-1H-benzo[d]imidazol-2-yl)-1H-pyrazolo[3,4-c]pyridin-5-yl)pyrazin-2-yl)azetidin-3-amine] had a concentration for half-maximal inhibition (IC50) of 0.079 µM. Still for that read-out and setting: the same measure for `CC(C)CC(=O)Nc1cncc(-c2cc3c(-c4nc5c(-c6cc(F)cc(OCCN(C)C)c6)cccc5[nH]4)n[nH]c3cn2)c1` [Compound 1262, N-(5-(3-(4-(3-(2-(Dimethylamino)ethoxy)-5-fluorophenyl)-1H-benzo[d]imidazol-2-yl)-1H-pyrazolo[3,4-c]pyridin-5-yl)pyridin-3-yl)-3-methylbutanamide]: 0.747 µM; for `Fc1cccc(-c2cccc3[nH]c(-c4n[nH]c5cnc(-c6cncc(OC7CCCCC7)c6)cc45)nc23)c1` [Compound 943, 5-(5-(Cyclohexyloxy)pyridin-3-yl)-3-(4-(3-fluorophenyl)-1H-benzo[d]imidazol-2-yl)-1H-pyrazolo[3,4-c]pyridine]: 0.56 µM; for `CC(C)CC(=O)Nc1cncc(-c2cc3c(-c4nc5c(-c6ccc(F)s6)cccc5[nH]4)n[nH]c3cn2)c1` [Compound 340, N-(5-(3-(4-(5-Fluorothiophen-2-yl)-1H-benzo[d]imidazol-2-yl)-1H-pyrazolo[3,4-c]pyridin-5-yl)pyridin-3-yl)-3-methylbutanamide]: 0.0173 µM. Still for that read-out and setting: for `CCCCC(=O)Nc1cncc(-c2cc3c(-c4nc5c(-c6ccoc6)cccc5[nH]4)n[nH]c3cn2)c1` [Compound 304, N-(5-(3-(4-(Furan-3-yl)-1H-benzo[d]imidazol-2-yl)-1H-pyrazolo[3,4-c]pyridin-5-yl)pyridin-3-yl)pentanamide] the value was 0.145 µM; for `CS(=O)(=O)NCc1cc(F)cc(-c2cccc3[nH]c(-c4n[nH]c5cnc(-c6cncc(NC(=O)C7CCC7)c6)cc45)nc23)c1` [Compound 436, N-(5-(3-(4-(3-Fluoro-5-(methylsulfonamidomethyl)phenyl)-1H-benzo[d]imidazol-2-yl)-1H-pyrazolo[3,4-c]pyridin-5-yl)pyridin-3-yl) cyclobutanecarboxamide], 0.0258 µM.

The molecule `O=C(Nc1cncc(-c2cc3c(-c4nc5ccccc5[nH]4)n[nH]c3cn2)c1)C1CCCCC1` [Compound 256, N-(5-(3-(1H-Benzo[d]imidazol-2-yl)-1H-pyrazolo[3,4-c]pyridin-5-yl)pyridin-3-yl)cyclohexanecarboxamide] had an IC50 of 0.0956 µM.

Turning to `CN(C)CC(=O)Nc1cncc(-c2cc3c(-c4nc5c(-c6cccc(F)c6)cccc5[nH]4)n[nH]c3cn2)c1` [Compound 1437, 2-(Dimethylamino)-N-(5-(3-(4-(3-fluorophenyl)-1H-benzo[d]imidazol-2-yl)-1H-pyrazolo[3,4-c]pyridin-5-yl)pyridin-3-yl)acetamide], the IC50 came to 0.155 µM. For the molecule `Cn1cc(-c2cc3c(-c4nc5c(-c6cccc(F)c6)cccc5[nH]4)n[nH]c3cn2)cn1` [Compound 940, 3-(4-(3-Fluorophenyl)-1H-benzo[d]imidazol-2-yl)-5-(1-methyl-1H-pyrazol-4-yl)-1H-pyrazolo[3,4-c]pyridine], it took 0.046 µM to reach half-maximal inhibition (IC50). Molecule `CC(C)C(=O)Nc1cncc(-c2cc3c(-c4nc5c(N6CCN(C)CC6)cccc5[nH]4)n[nH]c3cn2)c1` [Compound 217, N-(5-(3-(4-(4-Methylpiperazin-1-yl)-1H-benzo[d]imidazol-2-yl)-1H-pyrazolo[3,4-c]pyridin-5-yl)pyridin-3-yl)isobutyramide] had an IC50 of 0.355 µM. The molecule `CC(C)CC(=O)Nc1cncc(-c2cc3c(-c4nc5c(-c6cc(F)cc(OCCN7CCCC7)c6)cccc5[nH]4)n[nH]c3cn2)c1` [Compound 1306, N-(5-(3-(4-(3-Fluoro-5-(2-(pyrrolidin-1-yl)ethoxy)phenyl)-1H-benzo[d]imidazol-2-yl)-1H-pyrazolo[3,4-c]pyridin-5-yl)pyridin-3-yl)-3-methylbutanamide] yielded an IC50 of 1.37 µM.

In the next assay the test system is primary human fibroblasts derived from IPF patients (LL29 cells). Briefly: Inhibition of fibrosis (αSMA staining) in TGF-β1-treated primary human fibroblasts from IPF patients. The class given is cell-based. Conditions: Fibroblast, 96 h, TGF-β1 20 ng/mL, 4 days. On the procedure:
The above synthesized compounds were screened using primary human fibroblasts (derived from IPF patients) treated with TGF-β1 to determine their ability to inhibit the fibrotic process.
Compound Screening: Each compound was dissolved in DMSO as a 10 mM stock and used to prepare compound source plates. […] LL29 cells were plated at 1,500 cells/well in 80 μl/well F12 medium supplemented with 1% Fetal Bovine Serum. One hour after addition of the cells, TGF-β1 (Peprotech; 20 ng/mL) was added to the plates to induce fibrosis (ref. 1 and 2 above). Wells treated with TGF-β1 and containing DMSO were used as controls. Cells were incubated at 37° C. and 5% CO2 for 4 days. Following incubation for 4 days, SYTOX green nucleic acid stain (Life Technologies [Thermo Fisher Scientific]) was added to the wells at a final concentration of 1 uM and incubated at room temperature for 30 min. Cells were then fixed using 4% formaldehyde (Electron Microscopy Sciences), washed 3 times with PBS followed by blocking and permeabilization using 3% Bovine Serum Albumin (BSA; Sigma) and 0.3% Triton X-100 (Sigma) in PBS. Cells were then stained with antibody specific to α-smooth muscle actin (aSMA; Abcam) (ref. 1 and 2 above) in 3% Bovine Serum Albumin (BSA; Sigma) and 0.3% Triton X-100 (Sigma) in PBS, and incubated overnight at 4° C. […] Dead or apoptotic cells were excluded from analysis based on positive SYTOX green staining. % of total cells positive for αSMA were counted in each well and normalized to the average of 11 wells treated with TGF-β1 on the same plate using Dotmatics' Studies Software. […] The EC50 values are reported.
With `CN(C)CCNc1cc(F)cc(-c2cccc3[nH]c(-c4n[nH]c5cnc(-c6cncc(CNCC7CCCC7)c6)cc45)nc23)c1` [Compound 466, N^1-(3-(2-(5-(5-(((Cyclopentylmethyl)amino)methyl)pyridin-3-yl)-1H-pyrazolo[3,4-c]pyridin-3-yl)-1H-benzo[d]imidazol-4-yl)-5-fluorophenyl)-N^2,N^2-dimethylethane-1,2-diamine], it took 0.308 µM to reach a half-maximal effect (EC50). The same measure, in the same setting: the same measure for `CN1CCN(c2cccc3[nH]c(-c4n[nH]c5cnc(-c6cncc(CN7CCCCC7)c6)cc45)nc23)CC1` [Compound 223, 3-(4-(4-Methylpiperazin-1-yl)-1H-benzo[d]imidazol-2-yl)-5-(5-(piperidin-1-ylmethyl)pyridin-3-yl)-1H-pyrazolo[3,4-c]pyridine]: 2.61 µM.

(Values after patent publication US10202377B2, “3-(1H-benzo[D]imidazol-2-yl)-1H-pyrazolo[3,4-C]pyridine and therapeutic uses thereof” (Samumed, LLC, priority 2014, dated 2019).)
